Measured values published in publication PMC8954540, “A New Class of PSMA-617-Based Hybrid Molecules for Preoperative Imaging and Intraoperative Fluorescence Navigation of Prostate Cancer” (Pharmaceuticals, 2022).

How the values were obtained:
PC-3 tumor xenografts = test: Small-animal PET/MRI proof-of-concept, PSMA-negative xenograft; type: in vivo, mice; conditions: 0.5 nmol, PSMA-negative PC-3 xenograft, n = 1
Protocol: (§1) For the proof-of-concept imaging study, 0.5 nmol of the ^68Ga-labeled compound in 0.9% NaCl (pH 7) were injected into the tail vein under anesthesia (2% isoflurane, n = 1). PET/MRI was performed with a 3T PET/MRI scanner (Bruker, Ettlingen, Germany). For MR imaging, a nontriggered localizer followed by a T1-weighted 3D scan was applied. For PET imaging, a dynamic scan for 60 min and a static scan (20 min) at 2 h p.i. was recorded. Image reconstruction was done with ParaVision software (dynamic scan: MLEM 0.5 mm algorithm, 12 iterations; static scan: OSEM 0.25 mm algorithm, 1 iteration), and data analysis was conducted in PMOD (version 3.7) with data converted to SUV images. After PET/MRI, the mice were sacrificed, and optical imaging of the subcutaneous tumor and organs of interest was performed with the Odyssey CLx system (LI-COR Biosciences, excitation wavelength 800 nm).

LNCaP cells [1] = test: Specific cell surface binding and internalization of 68Ga-labeled compounds; type: cell-based
Protocol: (§2) LNCaP cells (CRL-1740; ATCC; PSMA-positive) and PC-3 cells (CRL-1435; ATCC; PSMA-negative) were cultured in RPMI medium (Thermo Fisher Scientific, Waltham, MA, USA) supplemented with 10% fetal calf serum and 2 mmol/L L-glutamine (all from (Thermo Fisher Scientific, Waltham, MA, USA) ) at 37 °C in humidified air with 5% CO2. Cells were harvested using trypsin-ethylenediaminetetraacetic acid (trypsin-EDTA; 0.25% trypsin, 0.02% EDTA, Invitrogen, Waltham, MA, USA). Cell line authentication was regularly performed. Binding affinities and internalization profiles of the ^68Ga-labeled compounds were determined in competitive cell binding assays and internalization experiments as described previously.

[2] = test system: LNCaP xenograft mouse model; test: Small-animal PET/MRI proof-of-concept, PSMA-positive xenograft; type: in vivo, mice
Protocol: (§3) Biodistribution and proof-of-concept imaging studies were performed in an experimental tumor xenograft model. A total of 5 × 10^6 cells of LNCaP (in 50% Matrigel; Becton Dickinson, Franklin Lakes, NJ, USA) were subcutaneously inoculated into the flank of 7- to 8-week-old male BALB/c nu/nu mice (Charles River, Wilmington, MA, USA/Janvier Labs, Le Genest-Saint-Isle, France).
as §1

[3] = test system: LNCaP-tumor bearing BALB/c nu/nu mice; test: Biodistribution (organ distribution) in tumor xenograft model; type: in vivo; conditions: 0.06 nmol; for Organ distribution Blood / Organ distribution Brain / Organ distribution Heart / Organ distribution Intestine / Organ distribution Kidney / Organ distribution Liver / Organ distribution Lung / Organ distribution Muscle / Organ distribution Spleen / Organ distribution Tumor: n=3
Protocol: as §3
For biodistribution studies, 60 pmol of ^68Ga-labeled PSMA-927 were injected into the tail vein (1–3 MBq, n = 3). The animals were sacrificed at 1 and at 2 h p.i., and organs of interest were dissected, blotted dry, and weighed. Finally, the radioactivity was measured using a gamma counter and calculated as % ID/g.

PC-3 cells = test: Confocal fluorescence imaging, PSMA-negative cells; type: cell-based; conditions: PSMA-negative PC-3 cells, 50 nmol/L
Protocol: (§4) For confocal microscopy sample preparation, 10^5 cells/well were seeded in poly-L-lysine (Sigma-Aldrich, Darmstadt, Germany) coated 4-well chambered coverslips (Nunc Lab-Tek II chambered coverglasses, Thermo Fisher Scientific, Waltham, MA, USA, live cell imaging) or on poly-L-lysine (Sigma-Aldrich, Darmstadt, Germany) coated #1 coverslips (15 mm diameter, fixed cell imaging) and kept for 48 h at 37 °C in humidified air with 5% CO2. Subsequently, cells were incubated with 50 nmol/L PSMA-927in RPMI for 5/15/30/45/60 min at 37 °C in humidified air with 5% CO2. […]
(§5) All confocal data were acquired with a custom-built STED system similar to the one published by Gorlitz et al.. […] Laser powers were measured in front of the microscope body. […]
(§6) The integrated fluorescence intensity was extracted with a custom-written ImageJ routine. […] Multiplying this mask with the corresponding raw image generates an output image with which the integrated fluorescence intensity can be evaluated exclusively in the signal-carrying parts of the raw image without summing up background.

LNCaP cells [4] = test: Cytotoxicity study by holographic time-lapse imaging; type: cell-based; conditions: 100 nmol/L, constant exposure for 48 h
Protocol: Potential cytotoxicity of PSMA-927 was assessed by analyzing the frequency of LNCaP cell division and the length of the LNCaP cell cycle via holographic time-lapse imaging. Cells were seeded in lumox® 24-well plates (Sarstedt, Nümbrecht, Germany) 48 h prior to the experiment and kept at 37 °C and 5% CO2. Imaging was performed with a HoloMonitor® M4 cytometer (PHI AB, Lund, Schweden) for a total period of 48 h at 37 °C and 5% CO2 with 15 min between image captures. Cell proliferation was followed in absence and in presence of 100 nmol/L PSMA-927. Data analysis was performed with the AppSuite software including cell segmentation, tracking of cells, identification of dividing cells, confluency measurement, and cell counting.

PSMA = molecular target: T1, PSMA (Homo sapiens, UniProt Q04609); test: Competitive cell binding assay (radioligand 68Ga-PSMA-10); conditions: free ligands, mean ± SD, n = 3
T1 construct: LNCaP cells (CRL-1740; ATCC; PSMA-positive); host or cells: LNCaP cells
Protocol: as §2

[5] = Lipophilicity, logD at pH 7.4 in n-octanol/PBS; type: physicochemical; conditions: 68Ga-labeled ligand
Protocol: The synthesis was performed according to previously published protocols. Details on synthesis and analytical data of the compounds are provided in the Supplementary Materials (Compound Synthesis and Analytical Characterization). […] Using 30% NaOH (Sigma-Aldrich, Darmstadt, Germany) and 10% NaOH (Sigma-Aldrich, Darmstadt, Germany), the pH was adjusted to 3.8. The reaction mixture was incubated at 98 °C for 5–10 min. The radiochemical yield was analyzed by reversed-phase high-performance liquid chromatography (RP-HPLC) or reversed-phase thin-layer chromatography (RP-TLC, 60 RP-18 F254S, Sigma-Aldrich, Darmstadt, Germany) with 0.5 M ammonium acetate/methanol (1:1) as the mobile phase. The lipophilicity of the ^68Ga-labeled compounds was determined using the 2-phase system n-octanol and PBS.

[6] = Spectral properties (absorption and emission); type: physicochemical; conditions: 10 μM in PBS (pH 7.4)
Protocol: Absorbance was measured with a Varian Cary 500 UV-VIS NIR Spectrophotometer (Agilent, Santa Clara, CA, USA) equipped with the software Cary 500 (EPROM Version 8.01, Agilent, Santa Clara, CA, USA) in the 200–1200 nm interval. Fluorescence emission was measured with a Varian Cary Eclipse Fluorescence-Spectrophotometer (Agilent, Santa Clara, CA, USA) equipped with the software Cary Eclipse (Version 1.1, Agilent, Santa Clara, CA, USA) with excitation at 710 nm in the 720–900 nm interval. PSMA-927 was diluted to 10 μM in PBS (pH 7.4) and measured in standard 1 cm quartz cuvettes.

LNCaP cells [7] = test: Confocal fluorescence imaging, PSMA-positive cells; type: cell-based; conditions: 50 nmol/L, 60 min of internalization
Protocol: as §4, §5, §6

human serum albumin = test system: human serum albumin; parameters: method as in PMID 942422, PMID 11325049; conditions: cited from earlier work
[8] = 68Ga-labeled compounds, blockage with 500 µmol/L 2-PMPA, mean ± SD, n = 3

T1 sequence (Q04609 whole entry): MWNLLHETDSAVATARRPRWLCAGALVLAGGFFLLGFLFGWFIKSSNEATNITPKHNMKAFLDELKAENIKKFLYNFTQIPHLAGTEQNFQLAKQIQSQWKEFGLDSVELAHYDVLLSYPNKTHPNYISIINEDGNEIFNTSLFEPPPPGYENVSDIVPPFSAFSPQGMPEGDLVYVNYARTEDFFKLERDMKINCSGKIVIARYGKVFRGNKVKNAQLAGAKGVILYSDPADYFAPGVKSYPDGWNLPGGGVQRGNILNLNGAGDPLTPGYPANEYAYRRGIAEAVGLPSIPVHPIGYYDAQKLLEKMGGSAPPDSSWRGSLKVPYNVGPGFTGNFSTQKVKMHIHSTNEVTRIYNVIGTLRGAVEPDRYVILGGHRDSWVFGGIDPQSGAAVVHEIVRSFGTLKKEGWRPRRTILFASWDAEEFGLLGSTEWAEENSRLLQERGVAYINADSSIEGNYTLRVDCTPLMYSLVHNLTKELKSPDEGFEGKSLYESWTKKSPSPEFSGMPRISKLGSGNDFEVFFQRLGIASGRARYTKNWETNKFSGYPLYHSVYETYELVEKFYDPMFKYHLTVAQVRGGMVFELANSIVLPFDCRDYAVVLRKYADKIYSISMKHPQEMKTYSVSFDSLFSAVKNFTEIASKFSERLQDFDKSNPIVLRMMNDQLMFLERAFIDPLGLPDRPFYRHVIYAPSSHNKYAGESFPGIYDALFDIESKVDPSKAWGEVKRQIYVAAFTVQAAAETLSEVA

CC1(C)C(=CC=C2CCCC(C=CC3=[N+](CCCCCC(=O)NCCCCC(NC(=O)CN4CCN(CC(=O)[O-])CCN(CC(=O)[O-])CCN(CC(=O)[O-])CC4)C(=O)NCC4CCC(C(=O)NC(Cc5ccc6ccccc6c5)C(=O)NCCCCC(NC(=O)NC(CCC(=O)O)C(=O)O)C(=O)O)CC4)c4ccc(S(=O)(=O)[O-])cc4C3(C)C)=C2Oc2ccc(S(=O)(=O)O)cc2)N(CCCCS(=O)(=O)O)c2ccc(S(=O)(=O)O)cc21.[68Ga+3] (stereo not drawn) [[^68Ga]Ga-PSMA-927, 68Ga-Glu-urea-Lys-2-Nal-Chx-Lys(IRDye800CW)-DOTA]
tumor uptake in PET/MRI (PC-3 tumor xenografts): lack of measurable uptake | specific cell surface binding (LNCaP cells [1]): 25.51 ± 9.73 %ID/10^5 LNCaP cells | specific internalization rate (LNCaP cells [1]): 27.64 ± 12.80 %ID/10^5 LNCaP cells | tumor uptake in PET/MRI ([2]; 0.5 nmol, PSMA-positive LNCaP xenograft, n = 1): strong and specific tumor uptake | pharmacokinetic profile (clearance) ([2]; time activity curves, PET/MRI): rapid clearance from non-malignant tissue (heart, liver, muscle) via the renal pathway | Tumor-to-Organ ratio Blood ([3]; 1 h p.i.): 3.69 ± 0.60 | Tumor-to-Organ ratio Brain ([3]; 1 h p.i.): 57.84 ± 9.25 | Tumor-to-Organ ratio Heart ([3]; 1 h p.i.): 8.57 ± 2.07 | Tumor-to-Organ ratio Intestine ([3]; 1 h p.i.): 10.37 ± 2.47 | Tumor-to-Organ ratio Kidney ([3]; 1 h p.i.): 0.06 ± 0.01 | Tumor-to-Organ ratio Liver ([3]; 1 h p.i.): 4.51 ± 0.84 | Tumor-to-Organ ratio Lung ([3]; 1 h p.i.): 2.84 ± 0.37 | Tumor-to-Organ ratio Muscle ([3]; 1 h p.i.): 12.23 ± 1.39 | Tumor-to-Organ ratio Spleen ([3]; 1 h p.i.): 1.76 ± 0.71 | Organ distribution Blood ([3]; 1 h p.i.): 1.14 ± 0.14 %ID/g | Organ distribution Brain ([3]; 1 h p.i.): 0.07 ± 0.01 %ID/g | Organ distribution Heart ([3]; 1 h p.i.): 0.51 ± 0.10 %ID/g | Organ distribution Intestine ([3]; 1 h p.i.): 0.43 ± 0.12 %ID/g | Organ distribution Kidney ([3]; 1 h p.i.): 65.64 ± 6.60 %ID/g | Organ distribution Liver ([3]; 1 h p.i.): 0.95 ± 0.15 %ID/g | Organ distribution Lung ([3]; 1 h p.i.): 1.47 ± 0.14 %ID/g | Organ distribution Muscle ([3]; 1 h p.i.): 0.34 ± 0.03 %ID/g | Organ distribution Spleen ([3]; 1 h p.i.): 2.82 ± 1.19 %ID/g | Organ distribution Tumor ([3]; 1 h p.i.): 4.13 ± 0.15 %ID/g | Tumor-to-Organ ratio Blood ([3]; 2 h p.i.): 7.58 ± 1.65 | Tumor-to-Organ ratio Brain ([3]; 2 h p.i.): 29.37 ± 13.17 | Tumor-to-Organ ratio Heart ([3]; 2 h p.i.): 14.79 ± 4.40 | Tumor-to-Organ ratio Intestine ([3]; 2 h p.i.): 11.92 ± 5.17 | Tumor-to-Organ ratio Kidney ([3]; 2 h p.i.): 0.13 ± 0.06 | Tumor-to-Organ ratio Liver ([3]; 2 h p.i.): 7.80 ± 3.09 | Tumor-to-Organ ratio Lung ([3]; 2 h p.i.): 6.11 ± 2.36 | Tumor-to-Organ ratio Muscle ([3]; 2 h p.i.): 11.55 ± 5.94 | Tumor-to-Organ ratio Spleen ([3]; 2 h p.i.): 3.60 ± 1.86 | Organ distribution Blood ([3]; 2 h p.i.): 0.82 ± 0.23 %ID/g | Organ distribution Brain ([3]; 2 h p.i.): 0.24 ± 0.11 %ID/g | Organ distribution Heart ([3]; 2 h p.i.): 0.43 ± 0.14 %ID/g | Organ distribution Intestine ([3]; 2 h p.i.): 0.59 ± 0.26 %ID/g | Organ distribution Kidney ([3]; 2 h p.i.): 57.47 ± 23.83 %ID/g | Organ distribution Liver ([3]; 2 h p.i.): 0.87 ± 0.34 %ID/g | Organ distribution Lung ([3]; 2 h p.i.): 1.11 ± 0.42 %ID/g | Organ distribution Muscle ([3]; 2 h p.i.): 0.66 ± 0.30 %ID/g | Organ distribution Spleen ([3]; 2 h p.i.): 2.08 ± 0.90 %ID/g | Organ distribution Tumor ([3]; 2 h p.i.): 5.85 ± 0.91 %ID/g

CC1(C)C(=CC=C2CCCC(C=CC3=[N+](CCCCCC(=O)NCCCCC(NC(=O)CN4CCN(CC(=O)O)CCN(CC(=O)O)CCN(CC(=O)O)CC4)C(=O)NCC4CCC(C(=O)NC(Cc5ccc6ccccc6c5)C(=O)NCCCCC(NC(=O)NC(CCC(=O)O)C(=O)O)C(=O)O)CC4)c4ccc(S(=O)(=O)O)cc4C3(C)C)=C2Oc2ccc(S(=O)(=O)O)cc2)N(CCCCS(=O)(=O)O)c2ccc(S(=O)(=O)O)cc21 (stereo not drawn) [PSMA-927, Glu-urea-Lys-2-Nal-Chx-Lys(IRDye800CW)-DOTA]
fluorescence signal increase (PC-3 cells): no significant fluorescence signal increase | cytotoxicity (cell count, confluency, frequency of cell division, cell cycle length) (LNCaP cells [4]): did not reveal any evidence of cytotoxicity | Specifically Cell Surface Bound (LNCaP cells [1]; [8]): 25.51 ± 9.73 %AR/10^5 Cells | Specifically Internalized (LNCaP cells [1]; [8]): 27.64 ± 12.80 %AR/10^5 Cells | Ki (PSMA; Ki=IC50/(1+cradioligand/Kd)): 13.2 ± 5.25 nM | IC50 (PSMA; radioligand 68Ga-PSMA-10, 0.75 nmol/L): 15.9 ± 5.46 nM | Lipophilicity logDpH 7.4 n-octanol/PBS [5]: -2.96 ± 0.06 | absorption maximum [6]: 778 nm | emission maximum ([6]; excitation at 710 nm): 796 nm | integrated fluorescence intensity fixed (LNCaP cells [7]; PFA-fixed cells): 3021 ± 863 counts | integrated fluorescence intensity live (LNCaP cells [7]; live cells): 11,618 ± 5412 counts

CC1(C)C(/C=C/C=C/C=C/C=C2\N(CCCCS(=O)(=O)O)c3ccc4ccccc4c3C2(C)C)=[N+](CCCCS(=O)(=O)[O-])c2ccc3ccccc3c21 [indocyanine green]
human serum albumin binding (human serum albumin): prone to human serum albumin binding
